Reference: patent publication US20110319463A1, “PREVENTIVE OR THERAPEUTIC AGENTS FOR OPTIC NERVE DISORDERS COMPRISING 4,6-DICHLORO-1H-INDOLE-2-CARBOXYLIC ACID DERIVATIVES OR SALTS THEREOF AS ACTIVE INGREDIENTS” (Saten Pharamaceuticals Co., Ltd., priority 2009, published 2011)

Key:
Format in all cases: in vivo
[1] = tested on: cell count in the retinal ganglion cell layer; assay: NMDA-induced rat retinal disorder model, retinal section evaluation (GCL cell count) after oral administration; settings: 10 nmol NMDA intravitreously, 30 mg/kg orally twice a day for 3 days, eyeballs enucleated 3 days after NMDA, non-treatment group = 100%, NMDA + base = 0%
From the text: A NMDA-induced rat retinal disorder model (Invest. Ophthalmol. Vis. Sci., 2003; 44:385-392) employed widely as an optic nerve disorder model was employed to evaluate the usefulness (retinal nerve cell death inhibiting effect) of the present compound.
A rat [Slc:SD, male, about 7 week-old) was allowed to inhale a gas containing 3 to 4% (v/v) vaporized isoflurane at a rate of 1 to 1.5 L air/min to accomplish a systemic introducing anesthesia, followed by a maintaining anesthesia with 2 to 3% (v/v) isoflurane. Thereafter, 5 μl of a solution of NMDA (Sigma, catalog No. M3262) dissolved at 2 mmol/L in a phosphate buffer (hereinafter referred to also as “PBS”) was given intravitreously (10 nmol as NMDA).
The rat 3 days after the intravitreous administration of the NMDA solution was treated with a 100 mg/kg sodium pentobarbital injection solution by an intraperitoneal administration to accomplish a systemic anesthesia and then the eyeballs were enucleated. The enucleated eyeballs were fixed in a 25%(w/v) glutaraldehyde: 10% (w/v) neutral buffered formalin=1:9 mixture. The fixed eyeballs were embedded with a paraffin and then sliced into retinal sections (3 μm in thickness), which were then subjected to a hematoxylin and eosin staining. Eight retinal sections were taken per eyeball at intervals of 45 μm so that the optic nerve papilla was included. Among these 8 sections, 3 sections were selected randomly, and a selected section was photographed for the retina of 700 to 900 μm in width with its center being located about 1.25 mm from the optic nerve papilla, using which the cell count in the retinal ganglion cell layer (hereinafter referred to also as “GCL cell count”) was calculated (average value). From the resultant GCL cell count, a % GCL cell count reduction inhibition of each test substance was calculated according to Equation 1 while assigning 100% to the non-treatment group and 0% to a group of 10 nmol NMDA given intravitreously+base given orally. Each group included 4 animals (7 to 8 eyeballs).
% GCL cell count reduction inhibition=(NX−NO)/(NU−NO)×100 [Equation 1] […]

[2] = Body weight evaluation in NMDA-induced rat retinal disorder model after oral administration; settings: 10 nmol NMDA intravitreously, 30 mg/kg orally twice a day for 3 days; for Weight gain (average): from day of NMDA administration to eyeball enucleation, non-treatment group 14.1
Experimental: Over a period from the day of the intravitreous NMDA administration through the eyeball enucleation, each individual animal was weighed once a day. Based on the body weight of the individual animal on the day of the intravitreous NMDA administration, the difference from the body weight on the day of the eyeball enucleation was calculated and the weight gain of each individual animal was calculated (average value). Each group included 4 animals. 5 μL of an NMDA solution dissolved in PBS (10 nmol as NMDA) was administered intravitreously. A 0.5% (w/v) aqueous solution of methyl cellulose was given by a repetitive oral administration twice a day in a volume of 10 mL/kg for 3 days from the day of the intravitreous NMDA administration until 2 days later. On the day of the intravitreous NMDA administration, a 0.5% (w/v) aqueous solution of methyl cellulose was given orally two times which were about 1 hour before the intravitreous NMDA administration and 1 to 2 hours. 5 μL of an NMDA solution dissolved in PBS (10 nmol as NMDA) was administered intravitreously. Each test compound suspended in 0.5% (w/v) methyl cellulose solution was given at a dose of 30 mg/kg by a repetitive oral administration twice a day in a volume of 10 mL/kg for 3 days from the day of the intravitreous NMDA administration until 2 days later. On the day of the intravitreous NMDA administration, each test compound suspended in 0.5% (w/v) methyl cellulose solution was given orally at a dose of 30 mg/kg two times which were about 1 hour before the NMDA administration and 1 to 2 hours. As a control compound, memantine was employed. 5 μL of an NMDA solution in PBS (10 nmol as NMDA) was administered intravitreously. Memantine dissolved in 0.5% (w/v) methyl cellulose solution was given at a dose of 30 mg/kg by a repetitive oral administration twice a day in a volume of 10 mL/kg for 3 days from the day of the intravitreous NMDA administration until 2 days later. On the day of the intravitreous NMDA administration, memantine dissolved in 0.5% (w/v) methyl cellulose solution was given orally at a dose of 30 mg/kg two times which were about 1 hour before the NMDA administration and 1 to 2 hours.

[3] = tested on: neurofilament light chain (NFL) expression level in the retinal tissue; assay: NMDA-induced rat retinal disorder model, quantitative PCR evaluation of NFL expression after intravitreous administration; settings: 10 nmol NMDA mixed with 15 nmol/eye compound intravitreously, retina isolated 1 day after, NFL corrected by GAPDH, non-treatment group = 100%, NMDA group = 0%
Experimental: In the NMDA-induced rat retinal disorder model, the efficacy of the test compounds were evaluated using as an index the expression level in the retinal tissue of the neurofilament light chain (hereinafter referred to also as “NFL”) which is one of major constituents of the optic nerve axon and is considered to be important in maintaining the morphology of the optic nerve axon. The rat 1 day after the intravitreous administration of NMDA was treated with a 100 mg/kg sodium pentobarbital injection solution by an intraperitoneal administration to accomplish a systemic anesthesia and then the eyeballs were enucleated, and the retina was isolated. […] RR037B). In accordance with the instruction attached to QuantiTect Multiplex PCR Kit (1000) (QIAGEN, catalog No. 204545), QuantiTect Multiplex PCR Master Mix, the synthesized cDNA, the primers/probe for NFL (Sigma, “Ordermade”) and the primers/probe for glycerylaldehyde 3-phosphate dehydrogenase (hereinafter referred to also as “GAPDH”) (Applied Biosystems, Catalog No. 4352338E) were mixed, and a quantitative PCR machine (Applied Biosystems, Catalog No. 7500-03) was employed to conduct a PCR reaction, whereby measuring the expression levels of NFL and GAPDH. From the NFL and GAPDH expression levels thus obtained, a relative NFL expression level was calculated by correcting the NFL expression level based on the housekeeping gene GAPDH expression level in accordance with Equation 2. […] Each group included 1 animal (2 eyeballs). % Relative NFL expression level=(NFL expression level/GAPDH expression level) [Equation 2] % NFL recovery=(EX−EO)/(EP−EO)×100 [Equation 3] wherein EP is a relative NFL expression level in the non-treatment group, EO is a relative NFL expression level in the group of 10 nmol intravitreous NMDA administration and EX is a relative NFL expression level in the group of intravitreous administration of 10 nmol NMDA mixed with each compound. 5 μL of an NMDA solution dissolved in a 30% (v/v) DMSO-containing purified water (10 nmol as NMDA) was administered intravitreously. […]

Structure (SMILES) | % Inhibition of GLC cell count reduction [1] | Weight gain compared with the non-treatment group (in words) [2] | Weight gain (average) [2] | % NFL Recovery (%, average) [3]
O=C(/C=C/c1c(C(=O)O)[nH]c2cc(Cl)cc(Cl)c12)Nc1ccccc1 [Compound A′, Sodium (E)-4,6-dichloro-3-(3-oxo-3-(phenylamino)-1-propenyl)-1H-indole-2-carboxylate] | 17.0% | weight gain almost equivalent to that in the non-treatment group | 12.6 | 86.6%
CC12CC3CC(C)(C1)CC(N)(C3)C2 [memantine, reference compound] | 20.7% | inhibited the weight gain | −3.6 | 33.6%
O=C(O)c1[nH]c2cc(Cl)cc(Cl)c2c1/C=C1\CCN(c2ccccc2)C1=O [Compound B′, sodium (E)-4,6-dichloro-3-((2-oxo-1-phenyl-3-pyrrolidinylidene)methyl)-1H-indole-2-carboxylate] | 14.8% | weight gain almost equivalent to that in the non-treatment group | 14.0 | 80.7%
